Measurements taken from ChEMBL document CHEMBL3797078, “Potent, selective and orally bioavailable leucine-rich repeat kinase 2 (LRRK2) inhibitors” (Bioorg Med Chem Lett, 2016).

What was measured:
[1] = target: Leucine-rich repeat serine/threonine-protein kinase 2 (Homo sapiens, UniProt Q5S007)
Description: Inhibition of GST-tagged human recombinant wild type LRRK2 using fluorescein- ERM as substrate after 1 hr by TR-FRET assay

in vivo [2] = details: rat, plasma, iv, 2 mg/kg
in vivo [3] = details: rat, plasma, ip, 5 mg/kg
Description: Plasma concentration in rat at 5 mg/kg, ip after 1 hr

in vivo [4] = details: rat, po, 10 mg/kg
in vivo [5] = details: rat, po, 10 mg/kg; remark: listed apart in the source
in vivo [6] = details: rat, iv, 2 mg/kg
Description: Half life in rat at 2 mg/kg, iv

in vivo [7] = details: rat, cerebrospinal fluid, ip, 5 mg/kg
Description: Drug uptake in CSF in rat at 5 mg/kg, ip after 1 hr

in vivo [8] = details: rat, po, 10 mg/kg; remark: listed apart in the source
in vitro = details: rat, in vivo
Description: Intrinsic clearance in rat

[9] = Protein binding in rat plasma; assay type: ADME, cell-free; details: read-out: PPB (converted)

Sequence of Leucine-rich repeat serine/threonine-protein kinase 2 (Q5S007 whole entry): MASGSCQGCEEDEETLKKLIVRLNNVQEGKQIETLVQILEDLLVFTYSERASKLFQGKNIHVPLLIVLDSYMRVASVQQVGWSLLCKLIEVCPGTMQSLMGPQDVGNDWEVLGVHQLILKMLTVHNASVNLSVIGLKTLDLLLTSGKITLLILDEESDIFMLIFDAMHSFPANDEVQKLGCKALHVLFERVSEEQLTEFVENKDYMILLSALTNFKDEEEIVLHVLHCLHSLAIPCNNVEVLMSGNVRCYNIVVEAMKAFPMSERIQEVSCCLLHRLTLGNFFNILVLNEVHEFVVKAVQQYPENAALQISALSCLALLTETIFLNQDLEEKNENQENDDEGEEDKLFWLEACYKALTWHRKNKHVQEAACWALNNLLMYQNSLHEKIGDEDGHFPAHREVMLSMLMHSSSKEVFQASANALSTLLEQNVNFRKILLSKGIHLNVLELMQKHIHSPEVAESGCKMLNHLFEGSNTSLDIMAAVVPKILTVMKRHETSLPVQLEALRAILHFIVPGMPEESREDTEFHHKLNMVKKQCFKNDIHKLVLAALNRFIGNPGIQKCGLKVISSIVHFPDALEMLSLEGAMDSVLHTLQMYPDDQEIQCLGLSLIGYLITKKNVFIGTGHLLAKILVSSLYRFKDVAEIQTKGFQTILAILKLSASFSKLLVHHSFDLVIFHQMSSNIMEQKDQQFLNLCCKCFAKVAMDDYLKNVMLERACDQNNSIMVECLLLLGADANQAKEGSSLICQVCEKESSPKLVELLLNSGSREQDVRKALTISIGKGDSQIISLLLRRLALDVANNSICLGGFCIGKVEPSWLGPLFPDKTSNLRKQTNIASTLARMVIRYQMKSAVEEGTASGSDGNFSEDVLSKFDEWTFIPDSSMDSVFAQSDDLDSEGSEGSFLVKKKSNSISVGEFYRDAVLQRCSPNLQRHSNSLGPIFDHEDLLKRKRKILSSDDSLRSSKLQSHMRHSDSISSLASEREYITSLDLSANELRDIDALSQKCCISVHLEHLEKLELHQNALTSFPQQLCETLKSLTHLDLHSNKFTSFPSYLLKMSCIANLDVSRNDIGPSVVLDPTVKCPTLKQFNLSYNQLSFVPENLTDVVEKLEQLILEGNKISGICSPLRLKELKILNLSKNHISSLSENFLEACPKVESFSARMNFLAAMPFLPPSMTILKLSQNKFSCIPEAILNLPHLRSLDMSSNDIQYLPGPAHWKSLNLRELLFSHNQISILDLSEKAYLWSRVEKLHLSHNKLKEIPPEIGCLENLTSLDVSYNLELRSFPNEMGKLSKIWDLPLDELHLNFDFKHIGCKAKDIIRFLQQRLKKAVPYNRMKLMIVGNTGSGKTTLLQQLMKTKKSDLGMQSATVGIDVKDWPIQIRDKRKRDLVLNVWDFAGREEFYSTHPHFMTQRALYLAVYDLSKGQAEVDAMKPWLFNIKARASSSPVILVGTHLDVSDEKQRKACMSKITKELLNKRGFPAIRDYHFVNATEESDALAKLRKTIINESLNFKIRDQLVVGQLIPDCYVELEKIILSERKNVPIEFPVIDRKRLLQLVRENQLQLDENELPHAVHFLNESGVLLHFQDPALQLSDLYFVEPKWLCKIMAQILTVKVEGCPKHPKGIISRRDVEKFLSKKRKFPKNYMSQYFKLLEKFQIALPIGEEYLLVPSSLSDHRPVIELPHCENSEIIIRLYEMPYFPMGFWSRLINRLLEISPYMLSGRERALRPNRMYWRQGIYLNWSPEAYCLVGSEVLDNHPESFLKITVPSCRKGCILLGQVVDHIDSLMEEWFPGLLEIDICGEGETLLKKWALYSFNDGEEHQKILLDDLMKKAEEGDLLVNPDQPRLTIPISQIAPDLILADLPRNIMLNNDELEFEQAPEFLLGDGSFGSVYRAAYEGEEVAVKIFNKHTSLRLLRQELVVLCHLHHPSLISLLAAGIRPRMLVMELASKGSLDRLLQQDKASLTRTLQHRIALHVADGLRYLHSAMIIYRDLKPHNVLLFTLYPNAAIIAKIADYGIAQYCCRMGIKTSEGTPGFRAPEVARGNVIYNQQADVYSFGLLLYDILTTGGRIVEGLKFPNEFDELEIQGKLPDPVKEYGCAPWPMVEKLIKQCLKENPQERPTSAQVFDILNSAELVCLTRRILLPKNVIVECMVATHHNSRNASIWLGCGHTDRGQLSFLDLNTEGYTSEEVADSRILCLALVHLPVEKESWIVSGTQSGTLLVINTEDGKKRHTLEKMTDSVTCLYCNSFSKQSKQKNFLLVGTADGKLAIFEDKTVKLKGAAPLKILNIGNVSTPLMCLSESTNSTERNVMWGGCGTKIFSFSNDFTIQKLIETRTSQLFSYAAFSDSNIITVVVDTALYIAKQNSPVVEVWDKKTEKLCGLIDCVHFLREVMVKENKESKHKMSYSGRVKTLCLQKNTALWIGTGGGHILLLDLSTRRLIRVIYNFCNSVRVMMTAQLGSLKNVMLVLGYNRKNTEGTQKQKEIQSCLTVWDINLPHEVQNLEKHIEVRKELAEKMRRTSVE

A Ki [1] of 377 nM was found for `CSc1sc(-c2cc[nH]n2)c2c1C(=O)CC(C)(C)C2` in this work.

A Ki [1] of 515 nM was found for `CC1(C)CC(=O)c2c(SCCO)sc(-c3cc[nH]n3)c2C1` in this work.

A Ki [1] of 156 nM was found for `CCSc1sc(-c2cc[nH]n2)c2c1C(=O)CC(C)(C)C2` in this work.

A Ki [1] of 256 nM was found for `CC(C)Sc1sc(-c2cc[nH]n2)c2c1C(=O)CC(C)(C)C2` in this work.

A Ki [1] of 614 nM was found for `O=C1NCCc2c(-c3cc[nH]n3)sc(SC3CC3)c21` in this work.

A Ki [1] of 58 nM was found for `CC[C@H]1CNC(=O)c2c(SCC3CC3)sc(-c3cc[nH]n3)c21` in this work.

A Ki [1] of 4460 nM was found for `O=C1NCCc2c(-c3cc[nH]n3)sc(Sc3ccccc3)c21` in this work.

A Ki [1] of 5570 nM was found for `CSc1sc(-c2cc[nH]n2)c2c1C(=O)N(C)CC2` in this work.

A Ki [1] of 411 nM was found for `CSc1sc(-c2cc[nH]n2)c2c1C(=O)NC1(CCCC1)C2` in this work.

A Ki [1] of 68 nM was found for `CCCSc1sc(-c2cc[nH]n2)c2c1C(=O)NC[C@@H]2CC` in this work.

A Ki [1] of 342 nM was found for `CSc1sc(-c2cc[nH]n2)c2c1C(=O)NC[C@H]2Cc1ccccc1` in this work.

A Ki [1] of 4710 nM was found for `CSc1sc(-c2cc[nH]n2)c2c1C(=O)N(c1ccccc1)CC2` in this work.

A Ki [1] of 459 nM was found for `O=C1NCCc2c(-c3cc[nH]n3)sc(SC3CCCC3)c21` in this work.

A clearance (in vivo [2]) of 11.9 mL/min/kg, a concentration at 1 h (in vivo [3]) of 24400 nM and an AUC (in vivo [4]) of 46.1 µM·h were found for `CCCSc1sc(-c2cc[nH]n2)c2c1C(=O)NC[C@@H]2C` in this work. For the same compound, the Cmax (in vivo [5]) was 16000 nM, the half-life (in vivo [6]) was 3.6 h and the concentration at 1 h (in vivo [7]) was 150 nM. The bioavailability (in vivo [8]) was 98%, the CLint scaled (in vitro) was 1200 mL/min/kg and the Ki [1] was 84 nM.

A Ki [1] of 5290 nM was found for `CCCc1sc(-c2cc[nH]n2)c2c1C(=O)CC(C)(C)C2` in this work.

A Ki [1] of over 10000 nM was found for `O=C1CCCc2c(-c3cc[nH]n3)sc(NC3CCCC3)c21` in this work.

A Ki [1] of 7130 nM was found for `CC1(C)CC(=O)c2c(S(C)(=O)=O)sc(-c3cc[nH]n3)c2C1` in this work.

A Ki [1] of over 10000 nM was found for `CC1(C)CC(=O)c2c(SCc3ccccc3)sc(-c3cc[nH]n3)c2C1` in this work.

A Ki [1] of 233 nM was found for `CSc1sc(-c2cc[nH]n2)c2c1C(=O)NC1(CCC1)C2` in this work.

A Ki [1] of 2790 nM was found for `CC1(C)CC(=O)c2c(NC3CCCC3)sc(-c3cc[nH]n3)c2C1` in this work.

A Ki [1] of over 10000 nM was found for `CSc1sc(-c2cc[nH]n2)c2c1C(=O)NC1(CC1)C2` in this work.

A Ki [1] of 319 nM was found for `CSc1sc(-c2cc[nH]n2)c2c1C(=O)NC[C@@H]2C` in this work.

A Ki [1] of over 10000 nM was found for `CSc1sc(-c2cc[nH]n2)c2c1C(=O)N[C@H](c1cccnc1)C2` in this work.

A Ki [1] of 5580 nM was found for `CSc1sc(-c2ccn(C)n2)c2c1C(=O)CC(C)(C)C2` in this work.

A Ki [1] of 589 nM was found for `CCSc1sc(-c2cc[nH]n2)c2c1C(=O)NCC2` in this work.

A clearance (in vivo [2]) of 56 mL/min/kg, a concentration at 1 h (in vivo [3]) of 2330 nM and an AUC (in vivo [4]) of 3.8 µM·h were found for `CSc1sc(-c2cc[nH]n2)c2c1C(=O)CCC2` in this work. It also gave a Cmax (in vivo [5]) of 1600 nM, a half-life (in vivo [6]) of 6.5 h and a concentration at 1 h (in vivo [7]) of 50 nM. It also gave a bioavailability (in vivo [8]) of 33%, a CLint scaled (in vitro) of 6500 mL/min/kg and a Ki [1] of 312 nM.

A Ki [1] of 993 nM was found for `Cc1nnc(Sc2sc(-c3cc[nH]n3)c3c2C(=O)CC(C)(C)C3)s1` in this work.

A Ki [1] of 919 nM was found for `O=C1NCCc2c(-c3cc[nH]n3)sc(SC3CCCCC3)c21` in this work.

A Ki [1] of 475 nM was found for `CC1(C)CC(=O)c2c(OC3CCCC3)sc(-c3cc[nH]n3)c2C1` in this work.

A Ki [1] of 172 nM was found for `CC1(C)CC(=O)c2c(SCC3CC3)sc(-c3cc[nH]n3)c2C1` in this work.

A Ki [1] of 603 nM was found for `CSc1sc(-c2cc[nH]n2)c2c1C(=O)NC[C@H]2C` in this work.

A Ki [1] of 572 nM was found for `CCCSc1sc(-c2cc[nH]n2)c2c1C(=O)NCC2` in this work.

A clearance (in vivo [2]) of 47.5 mL/min/kg, a concentration at 1 h (in vivo [3]) of 28300 nM and an AUC (in vivo [4]) of 14 µM·h were found for `CSc1sc(-c2cc[nH]n2)c2c1C(=O)NCC2` in this work. For the same compound, the Cmax (in vivo [5]) was 4800 nM, the half-life (in vivo [6]) was 1.4 h and the concentration at 1 h (in vivo [7]) was 500 nM. For the same compound, the bioavailability (in vivo [8]) was 70%, the CLint scaled (in vitro) was 1300 mL/min/kg and the Ki [1] was 3410 nM.

A Ki [1] of 295 nM was found for `O=C1CCCc2c(-c3cc[nH]n3)sc(SC3CCCC3)c21` in this work.

A Ki [1] of 1890 nM was found for `CC1(C)CC(=O)c2c(SCCc3ccccc3)sc(-c3cc[nH]n3)c2C1` in this work.

A Ki [1] of 988 nM was found for `CC(C)Sc1sc(-c2cc[nH]n2)c2c1C(=O)NCC2` in this work.

A clearance (in vivo [2]) of 95.5 mL/min/kg, a concentration at 1 h (in vivo [3]) of 970 nM and an AUC (in vivo [4]) of 0.01 µM·h were found for `CC1(C)CC(=O)c2c(SC3CCCC3)sc(-c3cc[nH]n3)c2C1` in this work. It also gave a Cmax (in vivo [5]) of 120 nM, a half-life (in vivo [6]) of 1.2 h and a concentration at 1 h (in vivo [7]) of 10 nM. It also gave a fraction unbound [9] of 0.007, a bioavailability (in vivo [8]) of 0.2% and a Ki [1] of 389 nM.

A Ki [1] of 83 nM was found for `C[C@H]1CNC(=O)c2c(SCC3CC3)sc(-c3cc[nH]n3)c21` in this work.

A Ki [1] of 1240 nM was found for `CSc1sc(-c2cc[nH]n2)c2c1C(=O)NC(C)C2` (racemic) in this work.

A Ki [1] of 1050 nM was found for `CSc1sc(-c2cc[nH]n2)c2c1C(=O)NC(C1CCC1)C2` (racemic) in this work.

A Ki [1] of 501 nM was found for `CSc1sc(-c2cc[nH]n2)c2c1C(=O)NC(C(F)(F)F)C2` (racemic) in this work.

A Ki [1] of 928 nM was found for `CSc1sc(-c2cc[nH]n2)c2c1C(=O)NC(Cc1ccccc1)C2` (racemic) in this work.

A Ki [1] of 3290 nM was found for `CSc1sc(-c2cc[nH]n2)c2c1C(=O)NC(c1cccc(F)c1)C2` (racemic) in this work.

A Ki [1] of 271 nM was found for `CSc1sc(-c2cc[nH]n2)c2c1C(=O)NC(c1ccc(F)cc1)C2` (racemic) in this work.
